Measurements from patent publication US20120245137A1 (Zalicus Pharmaceuticals Ltd., priority 2009, published 2012).

These compounds were tested against N-type calcium channel subunits (α1B, α2δ, and β3a) (Homo sapiens, UniProt Q00975) (assay: Block of Cav2.2 channel, whole cell voltage clamp, manual and PatchXpress). Settings: Table 5; table follows Assay Example 3 (whole cell voltage clamp / PatchXpress); assay not given.
Assay type: cell-based
Description: Cells are grown either on poly-D-lysine coated coverglass (manual EP) or in TIS culture plates (PatchXpress). For the PatchExpress, cells are released from the flask using trypsin. In both cases, the […] solution is (in mM): 130 […], 10 EGTA, 10 HEPES, 2 MgCl2, 3 MgATP, pH 7.3 with CsOH.
Microelectrodes are fabricated from borosilicate glass and fire-polished. […] The reference electrode is a silver-silver chloride pellet. Voltages are not corrected for the liquid junction potential between the internal and external solutions and leak is subtracted using the P/n procedure. Solutions are applied to cells by bath perfusion via gravity. The experimental chamber volume is—0.2 mL. and the perfusion rate is 0.5-2 mL/min. Flow of suction through the chamber is maintained at all times. Measurement of current amplitudes is performed with […] software (HEKA Elektronik).
PatchXpress (Molecular Devices) is a 16-well whole-cell automated patch clamp device that operates asynchronously with fully integrated fluidics. […] Capacitance and series resistance compensation is automated. No correction for liquid junction potentials is employed. Leak is subtracted using the P/n procedure. Compounds are added to cells with a pipettor from a 96-well compound plate. Voltage protocols and the recording of membrane currents are performed using the PatchXpress software/hardware system. Current amplitudes are calculated with DataXpress software.
In both manual and automated patch clamp, cells are voltage clamped at […] or −90 m V and 50 ms pulses to +20 mV are applied every 15 sec (0.067 Hz). Compounds are added in escalating doses to measure % inhibition. Percent inhibition is calculated from the ratio of the curerent amplitude in the presence and absence of compound. When multiple doses are achieved per cell, IC50 values are calculated.

N-type calcium channel subunits (α1B, α2δ, and β3a), sequence (Q00975 whole entry): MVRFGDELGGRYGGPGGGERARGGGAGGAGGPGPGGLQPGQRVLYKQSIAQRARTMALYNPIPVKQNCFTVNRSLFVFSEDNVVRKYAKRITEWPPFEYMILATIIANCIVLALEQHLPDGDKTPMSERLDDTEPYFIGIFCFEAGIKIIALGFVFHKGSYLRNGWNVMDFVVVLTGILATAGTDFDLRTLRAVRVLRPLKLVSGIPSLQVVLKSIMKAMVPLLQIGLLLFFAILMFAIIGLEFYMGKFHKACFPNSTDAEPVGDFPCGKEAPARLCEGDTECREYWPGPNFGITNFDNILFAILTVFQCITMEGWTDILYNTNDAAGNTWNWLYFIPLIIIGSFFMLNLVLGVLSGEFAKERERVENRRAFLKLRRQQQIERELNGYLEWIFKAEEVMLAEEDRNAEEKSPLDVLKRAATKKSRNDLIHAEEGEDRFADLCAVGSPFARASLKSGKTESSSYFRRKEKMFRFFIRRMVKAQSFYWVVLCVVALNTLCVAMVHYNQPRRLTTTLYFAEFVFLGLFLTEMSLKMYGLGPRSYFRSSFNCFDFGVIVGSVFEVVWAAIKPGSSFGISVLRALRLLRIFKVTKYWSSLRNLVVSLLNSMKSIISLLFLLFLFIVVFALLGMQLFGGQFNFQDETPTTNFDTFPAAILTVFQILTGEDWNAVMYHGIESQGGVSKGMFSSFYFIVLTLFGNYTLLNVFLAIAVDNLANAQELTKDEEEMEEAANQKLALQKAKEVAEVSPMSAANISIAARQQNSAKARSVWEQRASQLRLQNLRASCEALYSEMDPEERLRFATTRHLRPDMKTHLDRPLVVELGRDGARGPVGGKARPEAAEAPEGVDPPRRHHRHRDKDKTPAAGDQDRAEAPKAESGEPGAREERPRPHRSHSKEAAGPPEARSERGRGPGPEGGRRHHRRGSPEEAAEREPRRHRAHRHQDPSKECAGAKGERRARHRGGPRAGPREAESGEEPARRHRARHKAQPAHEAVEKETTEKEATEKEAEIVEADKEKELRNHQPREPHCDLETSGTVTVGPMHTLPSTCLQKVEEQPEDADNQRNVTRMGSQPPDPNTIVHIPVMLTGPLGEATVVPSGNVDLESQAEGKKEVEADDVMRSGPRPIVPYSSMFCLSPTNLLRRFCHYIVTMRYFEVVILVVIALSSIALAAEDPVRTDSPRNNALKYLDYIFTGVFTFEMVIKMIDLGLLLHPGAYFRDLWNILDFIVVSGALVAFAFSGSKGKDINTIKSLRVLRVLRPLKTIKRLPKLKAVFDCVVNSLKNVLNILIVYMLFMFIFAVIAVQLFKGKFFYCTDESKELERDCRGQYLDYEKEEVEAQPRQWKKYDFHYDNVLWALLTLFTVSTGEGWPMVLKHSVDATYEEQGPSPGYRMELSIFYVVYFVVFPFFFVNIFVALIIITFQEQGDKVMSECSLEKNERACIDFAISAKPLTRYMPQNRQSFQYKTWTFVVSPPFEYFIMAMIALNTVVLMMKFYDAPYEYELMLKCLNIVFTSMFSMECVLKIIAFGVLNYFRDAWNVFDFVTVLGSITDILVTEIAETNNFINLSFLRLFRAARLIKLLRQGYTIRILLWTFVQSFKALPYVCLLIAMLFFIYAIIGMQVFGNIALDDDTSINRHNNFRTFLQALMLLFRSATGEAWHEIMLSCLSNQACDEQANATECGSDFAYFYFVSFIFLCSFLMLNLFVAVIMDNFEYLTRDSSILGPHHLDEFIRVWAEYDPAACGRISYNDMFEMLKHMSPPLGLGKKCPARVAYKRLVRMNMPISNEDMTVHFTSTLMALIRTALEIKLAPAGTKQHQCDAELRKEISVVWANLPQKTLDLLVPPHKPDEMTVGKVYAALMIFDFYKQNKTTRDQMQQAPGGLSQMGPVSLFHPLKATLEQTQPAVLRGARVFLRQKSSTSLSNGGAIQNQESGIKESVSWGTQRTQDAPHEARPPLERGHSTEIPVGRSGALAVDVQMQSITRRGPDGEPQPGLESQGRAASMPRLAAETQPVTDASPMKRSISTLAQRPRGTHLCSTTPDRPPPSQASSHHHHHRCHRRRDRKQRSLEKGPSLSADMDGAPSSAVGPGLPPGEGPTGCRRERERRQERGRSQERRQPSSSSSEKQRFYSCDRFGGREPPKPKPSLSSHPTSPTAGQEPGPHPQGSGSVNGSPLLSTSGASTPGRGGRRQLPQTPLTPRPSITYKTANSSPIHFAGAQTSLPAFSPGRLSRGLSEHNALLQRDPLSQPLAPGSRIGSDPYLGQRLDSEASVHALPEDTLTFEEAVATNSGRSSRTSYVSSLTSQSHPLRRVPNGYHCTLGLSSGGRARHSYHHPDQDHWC
N-type calcium channel subunits (α1B, α2δ, and β3a), sequence (P54289 25-1103 partner): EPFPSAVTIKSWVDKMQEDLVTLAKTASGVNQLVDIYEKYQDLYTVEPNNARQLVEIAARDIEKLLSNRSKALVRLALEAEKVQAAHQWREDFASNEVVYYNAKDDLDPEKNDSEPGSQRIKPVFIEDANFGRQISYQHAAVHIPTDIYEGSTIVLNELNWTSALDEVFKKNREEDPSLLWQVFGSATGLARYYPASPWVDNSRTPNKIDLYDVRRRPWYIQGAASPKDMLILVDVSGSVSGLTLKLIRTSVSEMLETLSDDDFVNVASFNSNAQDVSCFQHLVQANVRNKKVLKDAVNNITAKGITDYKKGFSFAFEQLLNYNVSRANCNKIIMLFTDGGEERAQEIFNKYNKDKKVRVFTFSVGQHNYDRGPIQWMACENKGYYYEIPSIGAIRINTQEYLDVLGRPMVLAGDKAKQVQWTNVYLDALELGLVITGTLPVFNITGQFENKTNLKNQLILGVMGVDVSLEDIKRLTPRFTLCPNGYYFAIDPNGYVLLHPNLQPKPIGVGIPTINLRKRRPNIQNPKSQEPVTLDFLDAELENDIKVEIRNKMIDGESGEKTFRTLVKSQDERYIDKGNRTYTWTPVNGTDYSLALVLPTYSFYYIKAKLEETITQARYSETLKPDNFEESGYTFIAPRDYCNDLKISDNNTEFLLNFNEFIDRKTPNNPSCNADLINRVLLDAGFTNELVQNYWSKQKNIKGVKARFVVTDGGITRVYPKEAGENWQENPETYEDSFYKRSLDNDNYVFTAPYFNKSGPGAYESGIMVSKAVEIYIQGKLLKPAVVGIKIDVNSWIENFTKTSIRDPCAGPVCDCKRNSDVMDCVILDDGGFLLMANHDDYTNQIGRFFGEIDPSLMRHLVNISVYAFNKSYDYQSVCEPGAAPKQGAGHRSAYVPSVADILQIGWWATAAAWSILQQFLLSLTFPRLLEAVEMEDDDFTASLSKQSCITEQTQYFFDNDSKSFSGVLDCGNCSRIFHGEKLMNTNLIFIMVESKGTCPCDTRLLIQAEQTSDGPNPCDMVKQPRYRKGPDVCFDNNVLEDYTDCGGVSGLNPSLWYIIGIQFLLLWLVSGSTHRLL
N-type calcium channel subunits (α1B, α2δ, and β3a), sequence (P54284 whole entry partner): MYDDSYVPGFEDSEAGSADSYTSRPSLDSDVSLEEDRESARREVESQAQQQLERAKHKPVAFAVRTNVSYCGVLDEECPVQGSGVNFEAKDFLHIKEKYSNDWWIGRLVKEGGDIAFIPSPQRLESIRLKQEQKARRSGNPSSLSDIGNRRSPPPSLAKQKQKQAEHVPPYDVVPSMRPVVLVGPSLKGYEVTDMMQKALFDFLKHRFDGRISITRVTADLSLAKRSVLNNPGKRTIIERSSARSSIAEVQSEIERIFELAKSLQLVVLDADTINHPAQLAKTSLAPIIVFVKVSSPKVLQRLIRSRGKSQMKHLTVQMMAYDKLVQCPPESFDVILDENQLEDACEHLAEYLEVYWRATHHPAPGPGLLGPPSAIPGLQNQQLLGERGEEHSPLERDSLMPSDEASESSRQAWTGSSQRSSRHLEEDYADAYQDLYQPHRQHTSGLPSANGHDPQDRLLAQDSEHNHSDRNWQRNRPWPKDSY

| IC50 [nM] | Compound |
| --- | --- |
| 2350 | O=C(N[C@H]1C[C@H](S(=O)(=O)c2cccc(C(F)(F)F)c2)C1)c1ccc(F)c(Cl)c1 [Compound 225, 3-chloro-4-fluoro-N-(trans-3-(3-(trifluoromethyl)phenylsulfonyl)cyclobutyl)benzamide] |
| 1050 | N[C@@H]1CCCC[C@H]1C(=O)N[C@H]1CC[C@@](F)(S(=O)(=O)c2cccc(C(F)(F)F)c2)CC1 [Compound 284, (1R,2R)-2-amino-N-((1S,4S)-4-fluoro-4-(3-(trifluoromethyl)phenylsulfonyl)cyclohexyl) cyclohexanecarboxamide] |
| 1830 | CC(C)(C)c1nc([C@H]2C[C@@H](S(=O)(=O)c3cccc(C(F)(F)F)c3)C2)c[nH]1 [Compound 447, 2-tert-butyl-4-((1S,3S)-3-(3-(trifluoromethyl)phenylsulfonyl)cyclobutyl)-1H-imidazole] |
| 1540 | O=C(N[C@H]1CC[C@H](S(=O)(=O)c2cccc(C(F)(F)F)c2)CC1)c1ccnc(C(F)(F)F)c1 [Compound 189, 2-(trifluoromethyl)-N-((1R,4R)-4-(3-(trifluoromethyl)phenylsulfonyl)cyclohexyl)isonicotinamide] |
| 740 | O=C(NC[C@H]1C[C@H](S(=O)(=O)c2cc(F)cc(C(F)(F)F)c2)C1)c1ccc(OC(F)(F)F)cc1 [Compound 398, N-(((1R,3R)-3-(3-fluoro-5-(trifluoromethyl)phenylsulfonyl)cyclobutyl)methyl)-4-(trifluoromethoxy)benzamide] |
| 1020 | COc1cc(F)cc(C(=O)NC[C@]2(O)CC[C@@H](S(=O)(=O)c3cccc(C(F)(F)F)c3)CC2)c1 [Compound 229, 3-fluoro-N-(((1S,4S)-1-hydroxy-4-(3-(trifluoromethyl)phenylsulfonyl)cyclohexyl)methyl)-5-methoxybenzamide] |
| 740 | O=C(CN[C@H]1CC[C@H](S(=O)(=O)c2cccc(C(F)(F)F)c2)CC1)Nc1ccccn1 [Compound 77, N-(pyridin-2-yl)-2-((1R,4R)-4-(3-(trifluoromethyl)phenylsulfonyl)cyclohexylamino)acetamide] |
| 4920 | O=C(N[C@H]1CC[C@H](CS(=O)(=O)c2cccc(C(F)(F)F)c2)CC1)c1nsc(Cl)c1Cl [Compound 170, 4,5-dichloro-N-((1R,4R)-4-((3-(trifluoromethyl)phenylsulfonyl)methyl)cyclohexyl)isothiazole-3-carboxamide] |
| 810 | O=S(=O)(c1cccc(C(F)(F)F)c1)[C@H]1C[C@@H](c2c[nH]c(-c3ccc(C(F)(F)F)nc3)n2)C1 [Compound 446, 2-(trifluoromethyl)-5-(4-((1S,3S)-3-(3-(trifluoromethyl)phenylsulfonyl)cyclobutyl)-1H-imidazoI-2-yl)pyridine] |
| 3350 | O=C(N[C@H]1C[C@H](S(=O)(=O)c2cccc(C(F)(F)F)c2)C1)c1cc(F)cc(Cl)c1 [Compound 220, 3-chloro-5-fluoro-N-(trans-3-(3-(trifluoromethyl)phenylsulfonyl)cyclobutyl)benzamide] |
| 2100 | COc1cc(C(=O)NC[C@]2(O)CC[C@@H](S(=O)(=O)c3cccc(C(F)(F)F)c3)CC2)cc(Cl)n1 [Compound 236, 2-chloro-N-(((1S,4S)-1-hydroxy-4-(3-(trifluoromethyl)phenylsulfonyl)cyclohexyl)methyl)-6-methoxyisonicotinamide] |
| 7110 | O=C(N[C@H]1CC[C@H](CS(=O)(=O)c2cccc(C(F)(F)F)c2)CC1)c1cnccc1C(F)(F)F [Compound 169, 4-(trifluoromethyl)-N-((1R,4R)-4-((3-(trifluoromethyl)phenylsulfonyl)methyl)cyclohexyl)nicotinamide] |
| 2810 | CC(C)(C)NC(=O)CN[C@H]1C[C@H](S(=O)(=O)c2cccc(C(F)(F)F)c2)C1 [Compound 215, N-tert-butyl-2-(trans-3-(3-(trifluoromethyl)phenylsulfonyl)cyclobutylamino)acetamide] |
| 1360 | O=C(Nc1ncccc1C(F)(F)F)[C@H]1C[C@@H](S(=O)(=O)c2cccc(C(F)(F)F)c2)C1 [Compound 414, (1S,3S)-3-(3-(trifluoromethyl)phenylsulfonyl)-N-(3-(trifluoromethyl)pyridin-2-yl)cyclobutanecarboxamide] |
| 3350 | O=C(N[C@H]1CC[C@H](S(=O)(=O)c2cccc(C(F)(F)F)c2)CC1)c1ccnn1CC(F)(F)F [Compound 180, 1-(2,2,2-trifluoroethyl)-N-((1R,4R)-4-(3-(trifluoromethyl)phenylsulfonyl)cyclohexyl)-1H-pyrazole-5-carboxamide] |
| 2150 | Cn1nc(C(F)(F)F)cc1C(=O)N[C@H]1C[C@H](S(=O)(=O)c2cccc(C(F)(F)F)c2)C1 [Compound 226, 1-methyl-3-(trifluoromethyl)-N-(trans-3-(3-(trifluoromethyl)phenylsulfonyl)cyclobutyl)-1H-pyrazole-5-carboxamide] |
| 400 | CC(C)([C@H]1C[C@H](NC(=O)c2ccc(C(F)(F)F)cc2S(C)(=O)=O)C1)S(=O)(=O)c1cccc(C(F)(F)F)c1 [Compound 439, 2-(methylsulfonyl)-4-(trifluoromethyl)-N-((1R,3R)-3-(2-(3-(tritluoromethyl)phenylsulfonyl)propan-2-yl)cyclobutyl)benzamide] |
| 170 | O=C(N[C@H]1CC[C@@H](S(=O)(=O)c2cccc(C(F)(F)F)c2)CC1)c1cc(F)cc(Cl)c1 [Compound 40, 3-chloro-5-fluoro-N-((1S,4S)-4-(3-(trifluoromethyl)phenylsulfonyl)cyclohexyl)benzamide] |
| 5870 | CCN(CC)C(=O)CN[C@H]1CC[C@H](S(=O)(=O)c2cccc(C(F)(F)F)c2)CC1 [Compound 71, N,N-diethyl-2-((1R,4R)-4-(3-(trifluoromethyl)phenylsulfonyl)cyclohexylamino)acetamide] |
| 1250 | 6-(trifluoromethyl)-N-((1S,4S)-4- (3-(trifluoromethyl)phenylsulfonyl) cyclohexyl)nicotinamide [Compound 199] |
| 1500 | O=C(N[C@H]1C[C@H](S(=O)(=O)c2cccc(C(F)(F)F)c2)C1)c1ccc(F)c(C(F)(F)F)c1 [Compound 224, 4-fluoro-3-(trifluoromethyl)-N-(trans-3-(3-(trifluoromethyl)phenylsulfonyl)cyclobutyl)benzamide] |
| 540 | O=C(NC[C@H]1C[C@H](S(=O)(=O)c2cccc(C(F)(F)F)c2)C1)c1ccc(OCC(F)(F)F)nc1 [Compound 376, 6-(2,2,2-trifluoroethoxy)-N-(((1R,3R)-3-(3-(trifluoromethyl)phenylsulfonyl)cyclobutyl)methyl)nicotinamide] |
| 750 | O=C(NC[C@H]1C[C@H](S(=O)(=O)c2cc(F)cc(C(F)(F)F)c2)C1)c1ccc(Cl)c(Cl)c1 [Compound 395, 3,4-dichloro-N-(((1R,3R)-3-(3-fluoro-5-(trifluoromethyl)phenylsulfonyl)cyclobutyl)methyl)benzamide] |
| 1230 | CC1(CNC(=O)c2nc3ccc(C(F)(F)F)cc3[nH]2)CCC(F)(S(=O)(=O)c2cccc(C(F)(F)F)c2)CC1 (stereo not shown) [Compound 156, N-((4-fluoro-1-methyl-4-(3-(trifluoromethyl)phenylsulfonyl)cyclohexyl)methyl)-6-(trifluoromethyl)-1H-benzo[d]imidazole-2-carboxamide] |
| 2960 | COc1cc(F)cc(C(=O)N[C@H]2C[C@H](S(=O)(=O)c3cccc(C(F)(F)F)c3)C2)c1 [Compound 222, 3-fluoro-5-methoxy-N-(trans-3-(3-(trifluoromethyl)phenylsulfonyl)cyclobutyl)benzamide] |
| 1940 | O=C(CCC(F)(F)F)NC1CCC(S(=O)(=O)c2cccc(C(F)(F)F)c2)CC1 (stereo not shown) [Compound 12, 4,4,4-trifluoro-N-(4-(3-(trifluoromethyl)phenylsulfonyl)cyclohexyl)butanamide] |

| Compound | IC50 [nM] |
| --- | --- |
| 4,5-dichloro-N-((1R,4R)-4-(3- (trifluoromethyl)phenylsulfonyl) cyclohexyl)isothiazole-3- carboxamide [Compound 183] | 1990 |
| O=C1c2ccc(C(F)(F)F)cc2C(=O)N1C1CCC(F)(S(=O)(=O)c2cccc(C(F)(F)F)c2)CC1 [Compound 280, 2-((1S,4S)-4-fluoro-4-(3-(trifluoromethyl)phenylsulfonyl)cyclohexyl)-5-(trifluoromethyl)isoindoline-1,3-dione] | > 10000 |
| 2-(methylsulfonyl)-6-(trifluoromethyl)- N-(((1S,3S)-3- (3-(trifluoromethyl) phenylsulfonyl)cyclobutyl) methyl)nicotinamide [Compound 382] | 1710 |
| 3-(methylsulfonyl)-5-(trifluoromethyl)- N-(((1S,3S)- 3-(3-(trifluoromethyl) phenylsulfonyl)cyclobutyl) methyl)picolinamide [Compound 388] | 1060 |
| 2-chloro-6-(trifluoromethyl)-N- ((1S,4S)-4-(3- (trifluoromethyl)phenylsulfonyl) cyclohexyl)nicotinamide [Compound 200] | 1020 |
